Target: T1, PDK1 kinase (Homo sapiens, UniProt O15530)
T1 sequence (O15530 1-556): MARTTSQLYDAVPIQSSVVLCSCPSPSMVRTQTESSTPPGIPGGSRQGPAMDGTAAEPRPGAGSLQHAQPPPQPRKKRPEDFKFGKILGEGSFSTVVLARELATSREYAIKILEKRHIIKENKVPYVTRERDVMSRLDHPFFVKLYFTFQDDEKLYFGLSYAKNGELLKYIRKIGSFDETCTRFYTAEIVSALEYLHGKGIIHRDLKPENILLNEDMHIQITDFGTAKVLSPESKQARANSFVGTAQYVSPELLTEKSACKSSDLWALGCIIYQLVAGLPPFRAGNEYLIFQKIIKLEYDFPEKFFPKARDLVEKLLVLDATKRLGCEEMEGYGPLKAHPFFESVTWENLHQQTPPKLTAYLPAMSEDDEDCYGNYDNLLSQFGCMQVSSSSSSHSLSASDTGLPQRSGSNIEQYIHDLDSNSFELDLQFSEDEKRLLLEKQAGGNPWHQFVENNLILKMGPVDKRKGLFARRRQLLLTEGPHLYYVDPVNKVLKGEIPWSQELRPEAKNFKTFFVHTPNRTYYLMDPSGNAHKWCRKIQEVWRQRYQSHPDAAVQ
Assay: PDK1 Kinase Alpha Screen Assay
Type: biochemical
Conditions: Table 1; 10 μM ATP, 50 nM PDK1-4 peptide
Method in brief: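 PDK1 phosphorylation of 50 nM biotinylated PDK1-4 peptide with 10 μM ATP in 50 mM Tris pH 7.5, 10 mM MgCl2, 0.1% BSA, 0.01% Tween-20, 2 mM DTT, 2.5% DMSO, 3-18 h. Stopped with EDTA; phosphopeptide detected by AlphaScreen using phospho-(Ser/Thr) PKA substrate antibody on protein A acceptor and streptavidin donor beads, overnight at room temperature.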

Structure (SMILES)	IC50 [µM]
CC(=O)Nc1cc(CN2CCOCC2)cc(Nc2ncc3cc(-c4nccs4)ccc3n2)c1 [Example 133, N-(3-(morpholinomethyl)-5-(6-(thiazol-2-yl)-quinazolin-2-ylamino)-phenyl)acetamide]	< 5
CC(=O)Nc1cc(CN(C)C)cc(Nc2ncc3cc(Br)cc(F)c3n2)c1 [Example 135, N-(3-(6-Bromo-8-fluoroquinazolin-2-ylamino)-5-((dimethylamino)-methyl)phenyl)acetamide]	< 5
CC(=O)Nc1cc(CN2CCOCC2)cc(Nc2ncc3cc(-c4cnoc4)ccc3n2)c1 [Example 136, N-(3-(6-(isoxazol-4-yl)quinazolin-2-ylamino)-5-(morpholinomethyl)-phenyl)-acetamide]	< 5
C#Cc1ccc2nc(Nc3cc(CN)cc(NC(C)=O)c3)ncc2c1 [Example 137, N-(3-(aminomethyl)-5-(6-ethynylquinazolin-2-ylamino)phenyl)acetamide]	< 5
C#Cc1ccc2nc(Nc3ccccc3)ncc2c1 [Example 138, 6-ethynyl-N-phenyl-quinazolin-2-amine]	< 5
C#Cc1cc(F)c2nc(Nc3cc(CN(C)C)cc(NC(C)=O)c3)ncc2c1 [Example 139, N-(3-((Dimethylamino)methyl)-5-(6-ethynyl-8-fluoroquinazolin-2-ylamino)-phenyl)acetamide]	< 5
COc1cc2nc(Nc3cc(CN4CCOCC4)cc(NC(C)=O)c3)ncc2cc1-c1nccs1 [Example 140, N-(3-(7-methoxy-6-(thiazol-2-yl)quinazolin-2-ylamino)-5-(morpholino-methyl)phenyl)-acetamide]	< 5
C#Cc1ccc2nc(Nc3cc(CN4CCNCC4)cc(NC(C)=O)c3)ncc2c1 [Example 141, N-(3-(6-ethynylquinazolin-2-ylamino)-5-(piperazin-1-ylmethyl)phenyl)acetamide]	< 5
C#Cc1ccc2nc(Nc3cc(CN4CCOCC4)cc(NC(=O)C(C)C)c3)ncc2c1 [Example 142, N-(3-(6-ethynylquinazolin-2-ylamino)-5-(morpholino-methyl)phenyl)-isobutyramide]	< 5
C#Cc1ccc2nc(Nc3cc(CN4CCOCC4)cc(NS(C)(=O)=O)c3)ncc2c1 [Example 143, N-(3-(6-ethynylquinazolin-2-ylamino)-5-(morpholino-methyl)phenyl)methane-sulfonamide]	< 5
Brc1ccc2nc(Nc3cc(CN4CCOCC4)cc(-c4nnn[nH]4)c3)ncc2c1 [Example 144, 6-bromo-N-(3-(morpholinomethyl)-5-(1H-tetrazol-5-yl)phenyl)-quinazolin-2-amine]	< 5
CC(=O)Nc1cc(CN2CCOCC2)cc(Nc2ncc3cc(Br)ccc3n2)c1 [Example 145, N-(3-(6-bromoquinazolin-2-ylamino)-5-(morpholino-methyl)phenyl)acetamide]	< 5
C#Cc1ccc2nc(Nc3cc(NC(C)=O)cc(-c4ccncc4)c3)ncc2c1 [Example 146, N-(3-(6-ethynylquinazolin-2-ylamino)-5-(pyridin-4-yl)phenyl)acetamide]	< 5
CC(=O)Nc1cc(CN(C)C)cc(Nc2ncc3cc(Br)ccc3n2)c1 [Example 147, N-(3-(6-bromoquinazolin-2-ylamino)-5-((dimethyl-amino)methyl)phenyl)-acetamide]	< 5
CC#Cc1ccc2nc(Nc3cc(CN(C)C)cc(NC(C)=O)c3)ncc2c1 [Example 148, N-(3-((dimethylamino)-methyl)-5-(6-(prop-1-ynyl)quinazolin-2-ylamino)phenyl)acetamide]	< 5
C#Cc1ccc2nc(Nc3cc(CN4CCOCC4)cc(-c4nnn[nH]4)c3)ncc2c1 [Example 149, 6-ethynyl-N-(3-(morpholinomethyl)-5-(1H-tetrazol-5-yl)phenyl)-quinazolin-2-amine]	< 5
COc1cc2nc(Nc3ccc(N4CCOCC4)cc3)ncc2cc1-c1cn[nH]c1 [Example 150, 7-methoxy-N-(4-morpholinophenyl)-6-(1H-pyrazol-4-yl)quinazolin-2-amine]	< 5

Continued, values first:

IC50 [µM]	Structure (SMILES)
< 5	N#Cc1cc(CN2CCOCC2)cc(Nc2ncc3cc(Br)ccc3n2)c1 [Example 151, 3-(6-bromoquinazolin-2-ylamino)-5-(morpholino-methyl)benzonitrile]
< 5	C#Cc1ccc2nc(Nc3cc(C#N)cc(CN4CCOCC4)c3)ncc2c1 [Example 152, 3-(6-ethynylquinazolin-2-ylamino)-5-(morpholino-methyl)benzonitrile]
< 5	CC(=O)Nc1cc(Nc2ncc3cc(Br)ccc3n2)cc(-c2cn[nH]c2)c1 [Example 153, N-(3-(6-bromoquinazolin-2-ylamino)-5-(1H-pyrazol-4-yl)phenyl)acetamide]
< 5	C#Cc1ccc2nc(Nc3cc(OC)cc(-n4nnnc4C)c3)ncc2c1 [Example 156, 6-ethynyl-N-(3-methoxy-5-(5-methyl-1H-tetrazol-1-yl)phenyl)quinazolin-2-amine]
< 5	C#Cc1ccc2nc(Nc3cc(-c4ccncc4)cc(N4CCOCC4)c3)ncc2c1 [Example 157, 6-ethynyl-N-(3-morpholino-5-(pyridin-4-yl)phenyl)quinazolin-2-amine]
< 5	C#Cc1ccc2nc(Nc3cc(-c4cn[nH]c4)cc(N4CCOCC4)c3)ncc2c1 [Example 158, 6-ethynyl-N-(3-morpholino-5-(1H-pyrazol-4-yl)phenyl)-quinazolin-2-amine]
< 5	C#Cc1ccc2nc(Nc3cc(-c4cccnc4)cc(N4CCOCC4)c3)ncc2c1 [Example 159, 6-ethynyl-N-(3-morpholino-5-(pyridin-3-yl)phenyl)quinazolin-2-amine]
< 5	C#Cc1ccc2nc(Nc3cc(-c4ccncc4F)cc(N4CCOCC4)c3)ncc2c1 [Example 160, 6-ethynyl-N-(3-(3-fluoro-pyridin-4-yl)-5-morpholinophenyl)-quinazolin-2-amine]
< 5	C#Cc1ccc2nc(Nc3cc(CN4CCOCC4)cc(NC(C)=O)c3)ncc2c1F [Example 161, N-(3-(6-ethynyl-5-fluoro-quinazolin-2-ylamino)-5-(morpholinomethyl)-phenyl)-acetamide]
< 5	C#Cc1ccc2nc(Nc3cc(CN4CCOCC4)cc(NS(C)(=O)=O)c3)ncc2c1F [Example 162, N-(3-(6-ethynyl-5-fluoro-quinazolin-2-ylamino)-5-(morpholinomethyl)-phenyl)-methanesulfonamide]
< 5	COc1cc(-c2nccs2)c(-c2nccs2)c2cnc(Nc3ccc(N4CCOCC4)cc3)nc12 [Example 169, 8-methoxy-N-(4-morpholinophenyl)-5,6-di(thiazol-2-yl)quinazolin-2-amine]
5 to 10	COc1cc(-c2nccs2)c(-c2nccs2)c2cnc(Nc3ccc(C(=O)N4CCOCC4)cc3)nc12 [Example 170, (4-(8-methoxy-5,6-di(thiazol-2-yl)quinazolin-2-ylamino)phenyl)-(morpholino)methanone]
5 to 10	C#Cc1cc2cnc(Nc3cc(OC)cc(-n4nnnc4C)c3)nc2cc1OC [Example 172, 6-ethynyl-7-methoxy-N-(3-methoxy-5-(5-methyl-1H-tetrazol-1-yl)phenyl)-quinazolin-2-amine]
< 5	COc1cc2cnc(Nc3cc(CN4CCOCC4)cc(NC(C)=O)c3)nc2cc1OC [Example 174, N-(3-(6,7-dimethoxy-quinazolin-2-ylamino)-5-(morpholinomethyl)-phenyl)acetamide]
< 5	COc1cc2nc(Nc3cc(CN4CCOCC4)cc(NC(C)=O)c3)ncc2cc1-c1cn[nH]c1 [Example 175, N-(3-(7-methoxy-6-(1H-pyrazol-4-yl)quinazolin-2-ylamino)-5-(morpholino-methyl)phenyl)acetamide]

— patent US20100216767A1, “QUINAZOLINES FOR PDK1 INHIBITION” (priority 2006, published 2010)
